Experimental data reported in US20250243220A1, “ATR INHIBITORS” (APREA THERAPEUTICS, INC., priority 2022, published 2025).

Key:
Type in all cases: cell-based
MEC (+APH) = assay: MEC (+APH)
HCT116 Bcl/xl = assay: IC50 assay by Western blot (APH-treated cells), HCT116 Bcl/xl; settings: for IC50: Homo sapiens, HCT-116
Procedure: (§1) E. Treatment of Cells for IC50 Assay by Western Blot
(§2) The compound is stored as a 1 mM stock solution prepared in accordance with the Receipt of Compound SOP. The stock solution is diluted in cell media in two separate 1:10 dilution series.
(§3) 1. Arrange twelve 15-mL centrifuge tubes in a rack in two series and label them in accordance with Dilutions Series 1 and Dilution Series 2 shown in Table 1 and Table 2, respectively.
(§4) 2. Place 2.5 mL of prewarmed cell media in each of the […]. Place 2.25 mL of prewarmed cell media in the remaining tubes.
(§5) 3. Add 7.5 μL of 1 mM compound stock solution in the 3 μM tube. Mix well.
(§6) 4. Add 2.5 μL of 1 mM compound stock solution in the 1 μM tube. Mix well.
(§7) 5. For each series (separately), remove 250 μL from the leftmost tube and transfer to the next tube to the right. Repeat for each tube until the series is complete.
(§8) 6. Set aside the 1 μM tube, the 3 μM tube, and the 300 nM tube for discard.
(§9) 7. The cells to be treated will be in 6-well plates labeled by cell line. Remove the cells from the incubator and label the wells with the dosages to be administered.
(§10) 8. Arrange the dilution tubes in the rack in a manner that reflects the 6-well plate arrangement so as to avoid confusion when administering the dosage solutions to the appropriate wells.
(§11) 9. Aspirate the three wells in the top row of the first plate (labeled NT, APH+, and APH+) and replace with 2 mL fresh media (without drug compound).
(§12) 10. Aspirate the three wells in the bottom row of the first plate and replace each well with 2 mL of solution from the appropriate tube.
(§13) 11. Repeat step 10 for the next row of wells (top row second plate). and then for the final row of wells (bottom row second plate).
(§14) 12. Place both plates into the incubator for 30 minutes.
(§15) 13. After 30 minutes have elapsed, remove the plates from the incubator.
(§16) 14. Acquire stock solution of APH (5 mM) and add 2 μL of the APH stock solution to the center of each well except the well labeled NT.
(§17) 15. Swirl the plates carefully and gently to diffuse the APH throughout each well.
(§18) 16. Place the plates back in the incubator for 4 hours, at which point the cells will be harvested for analysis.
(§19) 17. Twenty minutes before harvesting (or 3 hours and 40 minutes after administration of APH), turn on a heat block suitable to heat Eppendorf tubes. Set the temperature to 95° C.
(§20) 18. Set up a number of Eppendorf tubes equal to the number of wells treated (i.e., twelve per two-plate drug administration), and label each tube with cell line, compound administered, dosage level, and date. Leave the tubes open.
(§21) 19. Add 200 mL DI water to a beaker.
(§22) 20. After 4 hours, remove treated plates from incubator.
(§23) 21. Aspirate media from all wells.
(§24) 22. Wash each well with 2 mL 1×PBS and aspirate.
(§25) 23. Sterilize vacuum line with 70% ethanol by spraying some into the nozzle while the vacuum is engaged. Shut off vacuum.
(§26) 24. Add Laemmli buffer to each well. For HCT116 Bcl/xl, OVCAR-3, and 22RV1 cells, add 300 μL per well; for OVCAR-8 and SKOV-3 cells, add 250 μL per well.
(§27) 25. Scrape the first well thoroughly. Place the scraper into the DI water between uses.
(§28) 26. Transfer the lysed cell debris mixture to the first tube carefully. The mixture will be viscous. Use a 1000-μL pipettor. Close the tube.
(§29) 27. Repeat steps 25 and 26 for each well.
(§30) 28. When all wells have been harvested, place all the tubes into the heat block. Place a weighted, heat-resistant object on top of the tubes to keep them closed.
(§31) 29. After 5 minutes, remove the tubes from the heat block and turn it off. Vortex each tube for 10 seconds. Be cautious of tubes popping open.
(§32) 30. Allow the tubes to come to room temperature and proceed to further analysis or store frozen at −20° C.

OVCAR-8 = assay: IC50 assay by Western blot (APH-treated cells), OVCAR-8; settings: OVCAR-8 cells; for IC50: Homo sapiens
Procedure: as §1, §2, §3, §4, §5, §6, §7, §8, §9, §10, §11, §12, §13, §14, §15, §16, §17, §18, §19, §20, §21, §22, §23, §24, §25, §26, §27, §28, §29, §30, §31, §32

22RV1 = assay: IC50 assay by Western blot (APH-treated cells), 22RV1; settings: 22RV1 cells; for IC50: Homo sapiens
Procedure: as §1, §2, §3, §4, §5, §6, §7, §8, §9, §10, §11, §12, §13, §14, §15, §16, §17, §18, §19, §20, §21, §22, §23, §24, §25, §26, §27, §28, §29, §30, §31, §32

OVCAR-3 = assay: IC50 assay by Western blot (APH-treated cells), OVCAR-3; settings: OVCAR-3 cells; for IC50: Homo sapiens
Procedure: as §1, §2, §3, §4, §5, §6, §7, §8, §9, §10, §11, §12, §13, §14, §15, §16, §17, §18, §19, §20, §21, §22, §23, §24, §25, §26, §27, §28, §29, §30, §31, §32

SKOV-3 = assay: IC50 assay by Western blot (APH-treated cells), SKOV-3; settings: SKOV-3 cells; for IC50: Homo sapiens, SK-OV-3
Procedure: as §1, §2, §3, §4, §5, §6, §7, §8, §9, §10, §11, §12, §13, §14, §15, §16, §17, §18, §19, §20, §21, §22, §23, §24, §25, §26, §27, §28, §29, §30, §31, §32

[1] = test system: HCT Bcl/xl, OVCAR-3, OVCAR-8, SKOV-3, 22RV1 cell lines; assay: Ave. IC50 across cell lines; settings: average across cell lines

Structure (SMILES)	minimal effective concentration (MEC (+APH)) [µM]	IC50 (HCT116 Bcl/xl) [nM]	PALD (Percent Activity at Lowest Dose tested) HCT Bcl/xl (HCT116 Bcl/xl)	IC50 (OVCAR-8) [nM]	PALD (Percent Activity at Lowest Dose tested) OVCAR-8 (OVCAR-8)	PALD (Percent Activity at Lowest Dose tested) 22RV1 (22RV1)	IC50 (22RV1) [nM]	IC50 (OVCAR-3) [nM]	PALD (Percent Activity at Lowest Dose tested) OVCAR-3 (OVCAR-3)	IC50 (SKOV-3) [nM]	PALD (Percent Activity at Lowest Dose tested) SKOV-3 (SKOV-3)	IC50 [1] [nM]
CC1(C)C[C@H](O)CCCCCCOc2c(CN)cccc2NC(=O)c2nc(cnc2N)-c2ccc(cc2)S1(=O)=O (single isomer, unassigned) [Compound H-2]	2e-05	6.43	(89%)	–	–	–	–	–	–	–	–	–
CN(C)Cc1cccc2c1OCCCCCCC(C)(O)CC(C)(C)S(=O)(=O)c1ccc(cc1)-c1cnc(N)c(n1)C(=O)N2 (stereo not drawn) [Compound E, 5-amino-13-[(dimethylamino)methyl]-22-hydroxy-22,24,24-trimethyl-25,25-dioxo-15-oxa-25λ^6-thia-4,8,31-triazatetracyclo[24.2.2.1^2,6.0^9,14]hentriaconta-1(28),2,4,6(31),9(14),10,12,26,29-nonaen-7-one]	8e-05	6.5	(91%)	6.47	(139%)	(72%)	3.28	–	–	–	–	–
CNCc1cccc2c1OCCCCCC[C@@](C)(O)CC1(CC1)S(=O)(=O)c1ccc(cc1)-c1cnc(N)c(n1)C(=O)N2 (single isomer, unassigned) [Compound B-2]	2e-05	3	(81%)	2.62	(115%)	(101%)	1.89	3.12	(94%)	0.97	(115%)	2.32
CC1(C)C[C@](C)(O)CCCCCCOc2c(CN)cccc2NC(=O)c2nc(cnc2N)-c2ccc(cc2)S1(=O)=O (single isomer, unassigned) [Compound C-2]	1e-05	5.41	(71%)	2.47	(100%)	(92%)	2.03	11.5	(95%)	3.2	(95%)	4.92
CNCc1cccc2c1OCCCCCCC(C)(O)CC(C)(C)S(=O)(=O)c1ccc(cc1)-c1cnc(N)c(n1)C(=O)N2 (racemic) [Compound A, 5-amino-22-hydroxy-22,24,24-trimethyl-13-(methylaminomethyl)-25,25-dioxo-15-oxa-25λ^6-thia-4,8,31-triazatetracyclo[24.2.2.1^2,6.0^9,14]hentriaconta-1(28),2(31),3,5,9(14),10,12,26,29-nonaen-7-one]	2e-05	3.49	(74%)	1.68	(71%)	(73%)	8.28	2.19	(111%)	2.39	(88%)	3.61
CNCc1cccc2c1OCCCCCC[C@](C)(O)CC1(CC1)S(=O)(=O)c1ccc(cc1)-c1cnc(N)c(n1)C(=O)N2 (single isomer, unassigned) [Compound B-1]	4e-05	4.61	(93%)	7.06	(132%)	(98%)	4.95	7.43	(105%)	1.57	(106%)	5.12
CC1(C)C[C@@](C)(O)CCCCCCOc2c(CN)cccc2NC(=O)c2nc(cnc2N)-c2ccc(cc2)S1(=O)=O (single isomer, unassigned) [Compound C-1]	1e-05	4.53	(72%)	3.63	(83%)	(107%)	3.5	1.02	(115%)	–	–	2.7
CNCc1cccc2c1OCCCCCC[C@H](O)CC(C)(C)S(=O)(=O)c1ccc(cc1)-c1cnc(N)c(n1)C(=O)N2 (single isomer, unassigned) [Compound G-1]	4e-05	7.77	(115%)	4.97	(85%)	(111%)	7.02	–	–	–	–	–
CC1(C)C[C@@H](O)CCCCCCOc2c(CN)cccc2NC(=O)c2nc(cnc2N)-c2ccc(cc2)S1(=O)=O (single isomer, unassigned) [Compound H-1]	4e-05	4.46	(89%)	–	–	(71%)	7.84	–	–	–	–	–
CN(C)Cc1cccc2c1OCCCCCCC(O)CC(C)(C)S(=O)(=O)c1ccc(cc1)-c1cnc(N)c(n1)C(=O)N2 (stereo not drawn) [Compound G, 5-amino-13-[(dimethylamino)methyl]-22-hydroxy-24,24-dimethyl-25,25-dioxo-15-oxa-25λ^6-thia-4,8,31-triazatetracyclo[24.2.2.1^2,6.0^9,14]hentriaconta-1(28),2(31),3,5,9(14),10,12,26,29-nonaen-7-one]	8e-05	12.5	(109%)	–	–	(104%)	5.09	4.97	(83%)	2.64	(97%)	–
CN(C)Cc1cccc2c1OCCCCCCC(C)(O)CC1(CC1)S(=O)(=O)c1ccc(cc1)-c1cnc(N)c(n1)C(=O)N2 (stereo not drawn) [Compound F, 5-amino-13-[(dimethylamino)methyl]-22-hydroxy-22-methyl-25,25-dioxo-spiro[15-oxa-25λ^6-thia-4,8,31-triazatetracyclo[24.2.2.1^2,6.0^9,14]hentriaconta-1(28),2,4,6(31),9(14),10,12,26,29-nonaene-24,1′-cyclopropane]-7-one]	0.000156	14.1	(104%)	31.5	(81%)	(96%)	10.8	8.23	(86%)	–	–	–
CNCc1cccc2c1OCCCCCC[C@@H](O)CC(C)(C)S(=O)(=O)c1ccc(cc1)-c1cnc(N)c(n1)C(=O)N2 (single isomer, unassigned) [Compound G-2]	4e-05	7.9	(83%)	–	–	(86%)	8.57	–	–	4.94	(92%)	–
